In patent publication US10398142B2, “Polycationic amphiphiles as antimicrobial agents” (priority 2013, dated 2019):
Where two headings read alike, the source gives them in different places.

Tests used:
[1] = test system: red blood cells (defibrinated sheep blood); assay: Hemolysis assay (Lysis20); details: Table 4; concentration at which less than 20% of red blood cells are lysed
Procedure, shortened: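 Defibrinated sheep red blood cells were incubated with compounds serially diluted in PBS, and the suspensions were read by OD. 1% Triton X served as 100% lysis and PBS as 0% lysis. Lysis20 is the concentration (μM) at which less than 20% of cells are lysed.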

[2] = test system: Staphylococcus aureus, Enterococcus faecalis, Escherichia coli and Pseudomonas aeruginosa; assay: MIC, summary statements over the four bacteria; format: cell-based; details: comparison of MIC values
Protocol: The term “minimum inhibitory concentration (MIC)” means the lowest concentration of an antimicrobial agent that will inhibit the visible growth of a microorganism after overnight incubation. MIC values against bacteria, for example, the Gram-positive Staphylococcus aureus and Enterococcus faecalis and the Gram-negative Escherichia coli and Pseudomonas aeruginosa were determined by standard methods. See also P. A. Wayne, Methods for Dilution Antimicrobial Tests for Bacteria that Grow Aerobically; Approved Standard, Ninth Edition, 2012, CLSI Document M07-A9, Vol. 32 No. 2.
With nearly three-dozen amphiphiles varying in structure and cationic nature synthesized, minimum inhibitory concentration (MIC) values against the Gram-positive Staphylococcus aureus and Enterococcus faecalis and the Gram-negative Escherichia coli and Pseudomonas aeruginosa were determined by standard methods. […] The commercially available antibacterial agent benzalkonium chloride (benzyldimethyldodecylammonium chloride, Bn,12) was tested for comparison. The broth microdilution for determining MIC values was performed as previously reported.
MIC variation mostly hinged on the length of alkyl chain, where the dodecyl chain was generally found to be optimal. […]

[3] = test system: Pseudomonas aeruginosa (PAO1); assay: Minimum inhibitory concentration (MIC), broth microdilution; format: cell-based; details: Table 3; read-out: MIC P. aeruginosa
Procedure, shortened: (§1)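 Broth microdilution: two-fold serial dilutions (twelve concentrations) mixed 1:1 with overnight cultures diluted to ca. 10^6 cfu/mL in Mueller-Hinton media, incubated statically at 37° C for 72 hours. MIC is lowest concentration with no growth visible to the naked eye, majority of three independent experiments.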

[4] = test system: Enterococcus faecalis (OG1RF); assay: as above; format: cell-based; details: Table 3; read-out: MIC E. faecalis
Procedure, shortened: as §1

[5] = test system: Escherichia coli (MC4100); assay: as above; format: cell-based; details: Table 3; read-out: MIC E. coli
Procedure, shortened: as §1

[6] = test system: Staphylococcus aureus MSSA (SH1000); assay: as above; format: cell-based
Procedure, shortened: as §1

MSSA (SH1000) = assay: Resistance development, liquid culture serial passage; format: cell-based, Staphylococcus aureus; details: over 24 days (>500 generations)
Protocol: (§2) Resistance development such as liquid culture resistance assay was performed. […] Once a day, an aliquot of bacterial culture from the highest concentration allowing bacterial growth was diluted 1:10,000 in fresh media containing a range of antibacterial compound. This process was repeated for several hundred generations.
(§3) Resistance Development Assays: Liquid culture serial passage protocols, in which bacteria are successively grown at sub-lethal concentrations of antibacterial compound, were employed.

CA-MRSA (USA300-0114) [7] = assay: as above; format: cell-based, Staphylococcus aureus; details: over 24 days (>500 generations)
Protocol: as §2, §3

E. faecalis biofilms = assay: Minimum biofilm eradication concentration (MBEC), regrowth assay; format: cell-based, Enterococcus faecalis; details: Table 5
Procedure, shortened: (§4)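 Static 24 h biofilms at 37° C. (BHI for S. aureus, Todd Hewitt for E. faecalis), then 16 h compound exposure, PBS washes and overnight regrowth in fresh media. MBEC is the lowest concentration giving final OD595 below 0.1; four replicates per concentration.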

HA-MRSA (ATCC 33591) = assay: Minimum inhibitory concentration (MIC), broth microdilution; format: cell-based, Staphylococcus aureus; details: Table 4; ATCC 33591; read-out: MIC HA-MRSA
Procedure, shortened: (§5)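 Two-fold serial dilutions (twelve concentrations) from aqueous stock; inoculum ca. 10^6 cfu/mL in Mueller-Hinton media, static incubation at 37 °C for 72 h. MIC read visually as lowest concentration with no visible growth, majority of three independent experiments.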

CA-MRSA (USA300-0114) [8] = assay: as above; format: cell-based, Staphylococcus aureus; details: Table 4; USA300-0114; read-out: MIC CA-MRSA
Procedure, shortened: as §5

[9] = test system: CA-MRSA (USA300-0114) biofilms; assay: Minimum biofilm eradication concentration (MBEC), regrowth assay; format: cell-based, Staphylococcus aureus; details: Table 5; USA300-0114
Procedure, shortened: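 CA-MRSA USA300-0114 biofilms grown statically 24 h at 37 °C in BHI, then exposed to compound for 16 h at 37 °C. After PBS washes, biofilms regrown overnight in fresh media; MBEC is the lowest concentration giving OD595 below 0.1, four replicates per concentration.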

[10] = test system: S. aureus (MSSA, SH1000) biofilms; assay: as above; format: cell-based, Staphylococcus aureus; details: Table 5; SH1000
Procedure, shortened: as §4

[11] = Table 3, read-out: MIC S. aureus
[12] = Table 4, SH1000, read-out: MIC MSSA

Structure (SMILES) | Lysis20 [1] [µM] | fold more bioactive than (N4-12,0,0,0) [2] | MIC [3] [µM] | MIC [4] [µM] | MIC [5] [µM] | MIC [6, 11] [µM] | MIC [6, 12] [µM] | resistance in serial passage, MSSA (MSSA (SH1000)) | resistance in serial passage, CA-MRSA (USA300-0114) (CA-MRSA (USA300-0114) [7]) | MBEC E. faecalis (E. faecalis biofilms) [µM] | MIC (HA-MRSA (ATCC 33591)) [µM] | MIC (CA-MRSA (USA300-0114) [8]) [µM] | MBEC CA-MRSA [9] [µM] | MBEC MSSA [10] [µM]
C=CC[N+](C)(CC[N+](C)(C)CCCCCCCCCCCC)CC[N+](C)(CC=C)CC[N+](C)(C)CCCCCCCCCCCC.[Br-].[Br-].[Br-].[Br-] (centres unmarked) [N4-12,3A,3A,12] | 8 | about 8 fold | 2 | 1 | 1 | 1 | 1 | No resistance was observed | No resistance was observed | 200 | 0.5 | 1 | 150 ± 50 | 100
CCCCCCCCCCCC[N+](C)(C)CCN(C)CCN(C)CC[N+](C)(C)CCCCCCCCCCCC.[Br-].[Br-] [N4-12,0,0,12] | 4 | about 8 fold | 4 | 1 | 1 | 1 | 1 |  |  | 75 ± 25 | 1 | 1 | 100 | 50
